Experiment [1] has as its system full length SMN2 minigene mRNA containing SMN2 exon 7. Kind of experiment: SMN2 minigene mRNA splicing RT-qPCR assay in cultured cells. Format: cell-based, human. The following applies: for SMN2 minigene FL mRNA relative to vehicle: HEK293H cells with SMN2-A minigene, rising concentrations, 24 hr, FIG. 3; for EC (1.5-fold): Homo sapiens, HEK293-H, HEK293H cells stably transfected with SMN2-A minigene, 24 hours, 7-point concentration curve, concentration giving 1.5-fold full length SMN2 mRNA vs vehicle, read-out: EC1.5x for production of full length SMN2 mRNA. The procedure, abridged: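 Read-out is minigene FL mRNA (exon 7 included) relative to vehicle, from efficiency-corrected ΔΔCt with GAPDH normalisation. Primers and probe span exon 7, exon 8 and luciferase, so endogenous SMN is not detected. Stable SMN2-A minigene HEK293H cells, 24 h compound exposure at 37 °C, 7-point curve in duplicate.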

In experiment [2] the test system is gems (Smn-dependent nuclear speckles). Nature of the experiment: Gems count (Smn-dependent nuclear speckle count) assay. The following applies: SMA Type 1 patient cells, 48 hour, FIG. 9. Format: cell-based, human. The source says: The level of Smn protein directly correlates with the amount of nuclear foci, also known as gems, produced upon staining the cell with a fluorescently labeled anti-Smn antibody (Liu and Dreyfuss, EMBO J., 1996, 15:3555). Gems are multi-protein complexes whose formation is nucleated by the Smn protein and the gems count assay is used to evaluate the level of Smn protein in the cell. As described herein, the gems count assay is used to quantify the level of Smn protein in SMA patient fibroblast cells treated with a test compound.
Cells are thawed and incubated in DMEM-10% FBS for 72 hours, then trypsinized, counted and resuspended to 100,000 cells/mL in DMEM-10% FBS. 2 mL of the cell suspension is plated in a 6-well cell culture plate with a sterile cover slip and incubated for 3 to 5 hours. Test compounds are serially diluted 3.16-fold in 100% DMSO to generate a 7-point dilution curve. […]
Cell culture medium is aspirated from the wells containing cover slips and gently washed three times with cold PBS. […] The number of gems is counted per ≧150 nuclei and % activation is calculated using DMSO and 10 nM bortezomib as controls. For each test compound, the cells are examined at all wavelengths to identify test compounds with inherent fluorescence.

SMILES strings stand for the structures.

In the case of `Cc1cn2cc(-c3cc4ccc(N5CCN(C)CC5)cc4c(=O)o3)nc2c(C)n1` [Cpd 65, 3-(6,8-dimethylimidazo[1,2-a]pyrazin-2-yl)-7-(4-methylpiperazin-1-yl)-1H-isochromen-1-one], in experiment [1], the “SMN2 minigene FL mRNA relative to vehicle” value is “increased SMN2 minigene FL mRNA at low concentrations” and the EC (1.5-fold) is not above 0.1 µM. The “gems (nuclear speckle) count relative to DMSO” value in experiment [2] is listed as “progressively more gems”.

With `Cc1cn2cc(-c3cc4ccc(N5CCN6CCC[C@H]6C5)cc4c(=O)o3)nc2c(C)n1` [Cpd 69, 3-(6,8-dimethylimidazo[1,2-a]pyrazin-2-yl)-7-[(8aS)-hexahydropyrrolo[1,2-a]pyrazin-2(1H)-yl]-1H-isochromen-1-one], in experiment [1], the “SMN2 minigene FL mRNA relative to vehicle” value is “increased SMN2 minigene FL mRNA at low concentrations” and the EC (1.5-fold) was not above 0.1 µM. In experiment [2], the “gems (nuclear speckle) count relative to DMSO” value is “progressively more gems”.

Source of the values: patent US9399649B2, “Compounds for treating spinal muscular atrophy” (PTC Therapeutics Inc., priority 2012, dated 2016).
